Measurements published in ChEMBL document CHEMBL1201862, “PubChem BioAssay data set” (2004).
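Assay format: 96-well plates, 48-hour exposure. GI50 marks 50% less growth.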 Active and inactive are the calls of the source. Cut-off read from the data, not from the text of the source: active = GI50 up to about 1.1 µM and inactive = higher.

Key:
Assay in all cases: NCI-60 cell line screen, 48 h
786-0 = system: 786-0
A498 = system: A498
A549 = system: A549
ACHN = system: ACHN
BT-549 = system: BT-549
CCRF-CEM = system: CCRF-CEM
COLO 205 = system: COLO 205
DU-145 = system: DU-145
EKVX = system: EKVX
HCC 2998 = system: HCC 2998
HCT-116 = system: HCT-116
HCT-15 = system: HCT-15
HL-60 = system: HL-60
HOP-62 = system: HOP-62
HOP-92 = system: HOP-92
HT-29 = system: HT-29
Hs-578T = system: Hs-578T
IGROV-1 = system: IGROV-1
K562 = system: K562
KM12 = system: KM12
LOX IMVI = system: LOX IMVI
M14 = system: M14
MCF7 = system: MCF7
MDA-MB-231 = system: MDA-MB-231
MDA-MB-435 = system: MDA-MB-435
MDA-N = system: MDA-N
MOLT-4 = system: MOLT-4
Malme-3M = system: Malme-3M
NCI-H226 = system: NCI-H226
NCI-H23 = system: NCI-H23
NCI-H460 = system: NCI-H460
NCI-H522 = system: NCI-H522
NCI/ADR-RES = system: NCI/ADR-RES
OVCAR-3 = system: OVCAR-3
OVCAR-4 = system: OVCAR-4
OVCAR-5 = system: OVCAR-5
OVCAR-8 = system: OVCAR-8
PC-3 = system: PC-3
RPMI-8226 = system: RPMI-8226
RXF 393 = system: RXF 393
SF-268 = system: SF-268
SF-295 = system: SF-295
SF-539 = system: SF-539
SK-MEL-28 = system: SK-MEL-28
SK-MEL-2 = system: SK-MEL-2
SK-MEL-5 = system: SK-MEL-5
SK-OV-3 = system: SK-OV-3
SN12C = system: SN12C
SNB-19 = system: SNB-19
SNB-75 = system: SNB-75
SR = system: SR
SW-620 = system: SW-620
T47D = system: T47D
TK-10 = system: TK-10
U-251 = system: U-251
UACC-257 = system: UACC-257
UACC-62 = system: UACC-62
UO-31 = system: UO-31

For `C=C1CCC2C(C)(CO)C(O)CCC2(C)C1C/C=C1\C(=O)OCC1O` (stereo not drawn), the GI50 (786-0) was 5.4 µM (inactive), the GI50 (A498) was 32.7 µM (inactive) and the GI50 (A549) was 23.8 µM (inactive). For the same compound, the GI50 (ACHN) was 29 µM (inactive), the GI50 (BT-549) was 7.53 µM (inactive) and the GI50 (CCRF-CEM) was 3.87 µM (inactive). For the same compound, the GI50 (COLO 205) was 14.8 µM (inactive), the GI50 (DU-145) was 38.8 µM (inactive) and the GI50 (EKVX) was 29.3 µM (inactive). For the same compound, the GI50 (HCC 2998) was 22.5 µM (inactive), the GI50 (HCT-116) was 14.7 µM (inactive) and the GI50 (HCT-15) was 14.6 µM. The GI50 (HL-60) was 16.2 µM (inactive), the GI50 (HOP-62) was 28.2 µM (inactive) and the GI50 (HOP-92) was 27.8 µM (inactive). For the same compound, the GI50 (HT-29) was 5.28 µM (inactive), the GI50 (Hs-578T) was 36.6 µM (inactive) and the GI50 (IGROV-1) was 18.2 µM (inactive). For the same compound, the GI50 (K562) was 3.24 µM (inactive), the GI50 (KM12) was 14.1 µM (inactive) and the GI50 (LOX IMVI) was 12.6 µM (inactive). For the same compound, the GI50 (M14) was 17.8 µM (inactive), the GI50 (MCF7) was 15.7 µM (inactive) and the GI50 (MDA-MB-231) was 26.4 µM (inactive). The GI50 (MDA-MB-435) was 10.3 µM (inactive), the GI50 (MDA-N) was 9.31 µM (inactive) and the GI50 (MOLT-4) was 28.2 µM (inactive). The GI50 (Malme-3M) was 15.6 µM (inactive), the GI50 (NCI-H226) was 39.8 µM (inactive) and the GI50 (NCI-H23) was 21.6 µM (inactive). The GI50 (NCI-H460) was 21.2 µM (inactive), the GI50 (NCI-H522) was 10.4 µM (inactive) and the GI50 (NCI/ADR-RES) was 25 µM (inactive). For the same compound, the GI50 (OVCAR-3) was 9.4 µM (inactive), the GI50 (OVCAR-4) was 11.1 µM (inactive) and the GI50 (OVCAR-5) was 17.1 µM (inactive). For the same compound, the GI50 (OVCAR-8) was 10.1 µM (inactive), the GI50 (PC-3) was 20.1 µM (inactive) and the GI50 (RPMI-8226) was 5.42 µM (inactive). For the same compound, the GI50 (RXF 393) was 18.7 µM (inactive), the GI50 (SF-268) was 31.1 µM (inactive) and the GI50 (SF-295) was 19.9 µM (inactive). For the same compound, the GI50 (SF-539) was 20.6 µM (inactive), the GI50 (SK-MEL-28) was 13.9 µM (inactive) and the GI50 (SK-MEL-2) was 15.2 µM (inactive). For the same compound, the GI50 (SK-MEL-5) was 14.1 µM (inactive), the GI50 (SK-OV-3) was 24 µM (inactive) and the GI50 (SN12C) was 15.2 µM (inactive). The GI50 (SNB-19) was 54.8 µM (inactive), the GI50 (SNB-75) was 15.4 µM (inactive) and the GI50 (SR) was 1.01 µM (active). For the same compound, the GI50 (SW-620) was 9.71 µM (inactive), the GI50 (T47D) was 24.7 µM (inactive) and the GI50 (TK-10) was 52.8 µM (inactive). For the same compound, the GI50 (U-251) was 11.1 µM (inactive), the GI50 (UACC-257) was 20 µM (inactive) and the GI50 (UACC-62) was 18.8 µM (inactive). The GI50 (UO-31) was 36.3 µM (inactive).
